Data from paper PMC5398486, “Cheminformatics-aided discovery of small-molecule Protein-Protein Interaction (PPI) dual inhibitors of Tumor Necrosis Factor (TNF) and Receptor Activator of NF-κB Ligand (RANKL)” (PLoS Computational Biology, 2017).
Where two headings read alike, the source gives them in different places.

Tests used:
RANKL = molecular target: T1, RANKL (Homo sapiens, UniProt O14788); assay: Fluorescence-based binding affinity assay, RANKL; conditions: for 'n' value from Scatchard plot (ligand binding sites per protein molecule): RANKL, binding assay raw data
T1 sequence (O14788 143-317): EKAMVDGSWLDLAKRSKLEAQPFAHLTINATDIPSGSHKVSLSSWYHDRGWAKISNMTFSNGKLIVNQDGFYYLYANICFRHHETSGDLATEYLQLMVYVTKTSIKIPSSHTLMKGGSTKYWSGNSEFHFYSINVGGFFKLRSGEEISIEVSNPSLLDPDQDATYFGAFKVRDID
Method: (§1) For use in the binding assays, recombinant TNF and RANKL were expressed and purified as previously described.[84–86] Fluorescence intensity was measure with a Synergy H1 Multi-Mode Reader (BioTek) in 96-well microplates (black) at 25°C. […] During preparation of the solutions the buffer was firstly added to all wells followed by the ligand solution and finally the protein was added. All solutions were mixed by pipetting and equilibrated for 1h at 25°C before measurement. […] Experiments were performed for TNF in 10 mM citrate-phosphate (pH 6.5) and for RANKL in 25 mM Tris–HCl buffer, 100 mM NaCl (pH 7.5); both buffers were supplemented with PEG3350 at the concentrations indicated in the respective figures. Kd values were calculated as mean ± SEM from three independent experiments.
(§2) Differences in fluorescence intensity between the protein/ligand complex and free protein (or free ligand) were analysed as previously described in [Papaneophytou et al. (2013) ACS Med Chem Lett. 4: 137-141] (Eq. S6) in order to determine the dissociation constant (Kd) of the various protein-ligand systems.
(§3) In Eq. (S6) Fobs is the observed fluorescence intensity; FBG is the fluorescence background signal; MFLF [picture] and PF are the molar fluorescence and concentration of free protein, respectively; FR is the fluorescence ratio of bound protein (or bound ligand in the case of a fluorescence ligand); LT and PT are the total concentrations of ligand and protein, respectively. A detailed analysis of the development of the fluorescence ligand-binding assay is given in [Papaneophytou et al. (2013) ACS Med Chem Lett. 4: 137-141].

[1] = Measurement of cytotoxicity in L929 cells (crystal violet); format: cell-based; conditions: mouse, compound alone, read-out: L929 LC50
Method: L929 cells were seeded onto a 96-well plate (3x10^4 cells/well). After 24 h, cells were treated with the compounds at increasing concentrations. DMSO was used in the untreated control. The next day, a PBS-washing step was performed to remove dead cells. The remaining live cells were next fixed with methanol and stained with crystal violet. After solubilization with acetic acid, staining was quantified spectrophotometrically at 570 nm. Survival is expressed with respect to the untreated control. Experiments were performed in triplicate.

human RANKL = molecular target: T2, human RANKL (Homo sapiens, UniProt O14788); assay: RANKL-induced osteoclastogenesis / osteoclastic (TRAP) activity assay in bone marrow cells; format: cell-based; conditions: 50 ng/ml human RANKL + 25 ng/ml M-CSF, read-out: IC50 (RANKL complexes, TRAP activity)
T2 sequence (O14788 140-317 limits assumed): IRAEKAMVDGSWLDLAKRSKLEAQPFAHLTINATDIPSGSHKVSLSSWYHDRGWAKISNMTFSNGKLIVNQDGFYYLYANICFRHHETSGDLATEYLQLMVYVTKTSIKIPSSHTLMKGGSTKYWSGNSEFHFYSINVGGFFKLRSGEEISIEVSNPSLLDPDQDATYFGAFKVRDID
Method: To visualize osteoclasts, cell cultures were stained with TRAP (tartrate-resistant acid phosphatase), using an acid phosphatase leukocyte (TRAP) kit (Sigma-Aldrich). Osteoclasts were identified as TRAP-positive multinucleated cells containing more than three nuclei.
To measure osteoclast activity, bone marrow cells were cultured for four days as described above and lysed with 0.2% Triton X-100. TRAP activity was measured by the conversion of p-nitrophenyl phosphate to p-nitrophenol in the presence of sodium tartrate. Thus, cell lysates were incubated with 5.5 mM phosphatase substrate diluted in 100 mM citrate buffer and 10 mM sodium tartrate, for 40 minutes at 37°C. The reaction was stopped by addition of 0.4 N sodium hydroxide and absorbance was measured at 405 nm using a microplate reader (Molecular Devices). TRAP activity was normalized to total protein content as determined by the Bradford assay (Bio-Rad protein assay). TRAP activity per μg of total protein was expressed as a percentage of the positive control treated without compounds. IC50 values were calculated as mean ± SEM from three independent experiments performed in duplicate.

TNF = TNF (Homo sapiens, UniProt P01375); assay: Fluorescence-based binding affinity assay, TNF; design: made in house; conditions: for 'n' value from Scatchard plot (ligand binding sites per protein molecule): TNF, binding assay raw data
Method: as §1, §2, §3

TNF/TNFR1 interaction = molecular target: T3, TNF/TNFR1 interaction (Homo sapiens, UniProt P01375); assay: TNF/TNFR1 ELISA assay; format: binding
T3 construct: purchased PeproTech
Method: 96-well plates were coated with 0.1 mg/mL recombinant soluble human TNFR1 (PeproTech) in PBS overnight at 4°C. […] After two consecutive rounds of washes, plates were incubated with a rabbit anti-human-TNF antibody (provided by Prof. W. A. Buurman, University of Maastricht) and an anti-rabbit secondary antibody conjugated with HRP (Vector Laboratories). Both incubations were for 1 h and were performed at room temperature. Following a last round of washes, the signal was finally developed using the TMB Substrate Kit (ThermoFisher Scientific) and was measured spectrophotometrically at 450 nm. Experiments were performed in triplicate. Having established that the selected compounds obstruct TNF function, and since TNF exerts its functions mainly through interacting with the TNFR1 receptor, a further test was performed to evaluate the effect of inhibition on this protein-receptor interaction.

BM viability (MTT assay) = format: cell-based; conditions: primary bone marrow cells, M-CSF 25 ng/mL, read-out: LC50 (RANKL complexes, BM viability)
Method: BMs were plated on 96-well plates at a density of 10^5 cells/well and treated with T8 and T23 at various concentrations, in the presence of M-CSF (25 ng/mL) for 48 hours. Cell viability was determined by the 3-(4,5-dimethylthiazol-2-yl)-2,5-diphenyltetrazolium bromide (MTT) colorimetric assay, which measures the ability of viable cells to reduce a soluble tetrazolium salt to an insoluble purple formazan precipitate.[63] After removal of the medium, each well was incubated with 0.5 mg/mL MTT (Sigma-Aldrich, St. Louis, MO) in serum-free α-MEM at 37°C for 3 h. At the end of the incubation period, the medium was removed and the intracellular formazan was solubilized with 200 μL DMSO and quantified by reading the absorbance at 550 nm on a microplate reader (Optimax; Molecular Devices, Sunnyvale, CA). Cell viability (%) was expressed as a percentage of the negative control treated without compounds. LC50 values were calculated as mean ± SEM from three independent experiments.

[2] = RANKL 0.5 μM, PEG3350 2.5%, 25 mM Tri-HCl, 100 mM NaCl pH 7.5, read-out: Binding affinity (Kd), RANKL
[3] = RANKL 0.5 μM, PEG3350 5%, 25 mM Tri-HCl, 100 mM NaCl pH 7.5, read-out: Binding affinity (Kd), RANKL
[4] = RANKL 1.5 μM, PEG3350 5%, 25 mM Tri-HCl, 100 mM NaCl pH 7.5, read-out: Binding affinity (Kd), RANKL
[5] = RANKL 2.5 μM, PEG3350 5%, 25 mM Tri-HCl, 100 mM NaCl pH 7.5, read-out: Binding affinity (Kd), RANKL
[6] = fluorescence assay, 25°C, 25 mM Tris-HCl, 100 mM NaCl, pH 7.5, 5% PEG3350, read-out: Kd (RANKL complexes)
[7] = TNF 0.75 μM, PEG3350 2.5%, 10 mM Citrate-phosphate buffer pH 6.5, read-out: Binding affinity (Kd), TNF
[8] = TNF 0.75 μM, PEG3350 5%, 10 mM Citrate-phosphate buffer pH 6.5, read-out: Binding affinity (Kd), TNF
[9] = TNF 1.5 μM, PEG3350 5%, 10 mM Citrate-phosphate buffer pH 6.5, read-out: Binding affinity (Kd), TNF
[10] = TNF 2.5 μM, PEG3350 5%, 10 mM Citrate-phosphate buffer pH 6.5, read-out: Binding affinity (Kd), TNF
[11] = fluorescence assay, 25°C, citrate-phosphate buffer, 5% PEG3350, read-out: Kd (TNF complexes)

TNF, sequence (P01375 77-233 limits assumed): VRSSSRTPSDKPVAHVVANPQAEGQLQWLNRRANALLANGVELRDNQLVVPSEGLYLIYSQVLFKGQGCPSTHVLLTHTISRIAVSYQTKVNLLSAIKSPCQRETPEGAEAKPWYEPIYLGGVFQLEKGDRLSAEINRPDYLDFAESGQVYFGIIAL
T3 sequence (P01375 77-233 limits assumed): as above

SMILES | Kd (RANKL; [2]) [µM] | Kd (RANKL; [3]) [µM] | Kd (RANKL; [4]) [µM] | Kd (RANKL; [5]) [µM] | 'n' value from Scatchard plot (ligand binding sites per protein molecule) (RANKL) | Kd (RANKL; [6]) [µM] | CC50 at 1 day [1] [µM] | IC50 (human RANKL) [µM] | Kd (TNF; [7]) [µM] | Kd (TNF; [8]) [µM] | Kd (TNF; [9]) [µM] | Kd (TNF; [10]) [µM] | 'n' value from Scatchard plot (ligand binding sites per protein molecule) (TNF) | Kd (TNF; [11]) [µM] | IC50 (TNF/TNFR1 interaction) [µM] | CC50 at 48 h (BM viability (MTT assay)) [µM] | Kd (RANKL; RANKL 0.5 μM, PEG3350 0%, 25 mM Tri-HCl, 100 mM NaCl pH 7.5, read-out: Binding affinity (Kd), RANKL) [µM] | Kd (TNF; TNF 0.75 μM, PEG3350 0%, 10 mM Citrate-phosphate buffer pH 6.5, read-out: Binding affinity (Kd), TNF) [µM]
O=C(NNC(=NS(=O)(=O)c1ccc(-n2nc(C(F)(F)F)cc2-c2cccs2)cc1)N1CCCC1)c1ccc(Cl)cc1 [Compound T8, N-[(4-chlorobenzoyl)amino]-N'-[4-[5-thiophen-2-yl-3-(trifluoromethyl)pyrazol-1-yl]phenyl]sulfonylpyrrolidine-1-carboximidamide] | 6.15 ± 0.22 | 6.32 ± 0.62 | 6.55 ± 0.84 | 6.05 ± 0.37 | 1 | 6.3 ± 0.6 | > 100 | 9 ± 0.7 | 9.55 ± 0.81 | 8.78 ± 0.76 | 9.02 ± 0.88 | 9.17 ± 0.88 | 1 | 8.8 ± 0.8 | 30 ± 2.3 | 42.6 ± 4.3 | – | –
COc1cc(OC(C)=O)c(-c2cc(OC(C)=O)c(OC)cc2OC(C)=O)cc1OC(C)=O [Compound T23, [4-acetyloxy-2-(2,5-diacetyloxy-4-methoxyphenyl)-5-methoxyphenyl] acetate] | 7.44 ± 0.52 | 7.25 ± 0.44 | 7.62 ± 0.84 | 7.02 ± 0.33 | 1 | 7.3 ± 0.4 | > 100 | 2.6 ± 0.2 | 3.02 ± 0.31 | 2.8 ± 0.19 | 2.63 ± 0.25 | 2.98 ± 0.47 | 1 | 2.8 ± 0.2 | 3 ± 0.1 | 5.9 ± 0.3 | 7.02 ± 0.63 | 2.53 ± 0.23
